Data taken from patent US20260234403A1, “PHOTOACTIVE FLUORESCENT COMPOUNDS AND USE THEREOF FOR LABELING OF PROTEINS” (EIKON THERAPEUTICS, INC., priority 2023, published 2026).

Assays:
[1] = tested on: Wild-type (WT) U2OS cells; assay: Reduction in nonspecific labeling of WT cells (number of tracks vs PA-JF549); format: cell-based; settings: 100 nM, 1 hr, ratio with PA-JF549 in the numerator
Procedure: Using the methods described in Tables 4a and 4b above, labelling specificity of the compound of Examples 1-28 was measured and compared to PA-JF549. U2OS cells wild type or expressing ER-HaloTag fusion were incubated with PA-JF549 or Examples 1-28 for 1 hr. […] Labeling specificity, as measured by the fold reduction in nonspecific labeling of WT cells, was calculated by number of tracks measured in WT cells for Examples 1-28 compared to the number of tracks in WT cells for PA-JF549, expressed as the ratio with PA-JF549 in the numerator.

[2] = tested on: histone H2B-HaloTag fusion; assay: Halo-protein specificity (Specificity Factor), single molecule spot detection; format: cell-based; settings: ratio of slope (spots vs dye concentration, 200 nM to 1 nM, 45 minutes) relative to PA-JF549; WT and H2B-HaloTag U2OS cells
Source text: Images were collected every 10 msec for 5 seconds per field of view and pulses of ascending intensity 405 nm light (between 0 and 12 mW at the coverslip) were used to photoactivate dye molecules.
For each dye compound, a linear regression was used to determine the relationship between the concentration of dye compound and the number of fluorescence spots detected on the microscope, where in WT cells the ideal dye would have no correlation between compound concentration and number of slots measured. The Specificity Factor was calculated as the ratio of the slope of the compound in question relative to the slope calculated for PA-JF549 and is shown in Table 3 below.

[3] = Table 4b, Example 19 with 642 nm light

## COC[C@H]1CCN1c1ccc2c(c1)Oc1cc(N3CC[C@@H]3COC)ccc1C21C(=[N+]=[N-])C(=O)c2ccc(C(=O)NCCOCCOCCCCCCCl)cc21 [Example 3, N-(2-(2-((6-chlorohexyl)oxy)ethoxy)ethyl)-2-diazo-3′,6′-bis((R)-2-(methoxymethyl)azetidin-1-yl)-3-oxo-2,3-dihydrospiro[indene-1,9′-xanthene]-6-carboxamide]
[1]; Table 4a
  Fold reduction in nonspecific labeling: 1-5
[1]; [3]
  Fold reduction in nonspecific labeling: 1-5
[2]
  Specificity Factor: 2.07

## [N-]=[N+]=C1C(=O)c2ccc(C(=O)NCCOCCOCCCCCCCl)cc2C12c1ccc(N3CC(C(=O)O)C3)cc1Oc1cc(N3CC(C(=O)O)C3)ccc12 [Reference Example 2, 1,1′-(6-((2-(2-((6-chlorohexyl)oxy)ethoxy)ethyl)carbamoyl)-2-diazo-3-oxo-2,3-dihydrospiro[indene-1,9′-xanthene]-3′,6′-diyl)bis(azetidine-3-carboxylic acid)]
[1]; Table 4a
  Fold reduction in nonspecific labeling: >10
[1]; [3]
  Fold reduction in nonspecific labeling: >10
[2]
  Specificity Factor: <1

## COC(=O)C1CN(c2ccc3c(c2)Oc2cc(N4CC(C(=O)OC)C4)ccc2C32C(=[N+]=[N-])C(=O)c3ccc(C(=O)NCCOCCOCCCCCCCl)cc32)C1 [Reference Example 1, dimethyl 1,1′-(6-((2-(2-((6-chlorohexyl)oxy)ethoxy)ethyl)carbamoyl)-2-diazo-3-oxo-2,3-dihydrospiro[indene-1,9′-xanthene]-3′,6′-diyl)bis(azetidine-3-carboxylate)]
[1]; Table 4a
  Fold reduction in nonspecific labeling: >10
[1]; [3]
  Fold reduction in nonspecific labeling: >10
[2]
  Specificity Factor: 2.66

## CN(C)C(=O)C1CN(c2ccc3c(c2)Oc2cc(N4CC(C(=O)N(C)C)C4)ccc2C32C(=[N+]=[N-])C(=O)c3ccc(C(=O)NCCOCCOCCCCCCCl)cc32)C1 [Example 4, 1,1′-(6-((2-(2-((6-chlorohexyl)oxy)ethoxy)ethyl)carbamoyl)-2-diazo-3-oxo-2,3-dihydrospiro[indene-1,9′-xanthene]-3′,6′-diyl)bis(N,N-dimethylazetidine-3-carboxamide)]
[1]; Table 4a
  Fold reduction in nonspecific labeling: >10
[1]; [3]
  Fold reduction in nonspecific labeling: >10
[2]
  Specificity Factor: 23.8

## COC(=O)[C@H]1CCN1c1ccc2c(c1)Oc1cc(N3CC[C@@H]3C(=O)OC)ccc1C21C(=[N+]=[N-])C(=O)c2ccc(C(=O)NCCOCCOCCCCCCCl)cc21 [Example 6, Dimethyl 1,1′-(6-((2-(2-((6-chlorohexyl)oxy)ethoxy)ethyl)carbamoyl)-2-diazo-3-oxo-2,3-dihydrospiro[indene-1,9′-xanthene]-3′,6′-diyl)(2R,2′R)-bis(azetidine-2-carboxylate)]
[1]; Table 4a
  Fold reduction in nonspecific labeling: 1-5
[1]; [3]
  Fold reduction in nonspecific labeling: 1-5

## [N-]=[N+]=C1C(=O)c2ccc(CCCCOCCOCCCCCCCl)cc2C12c1ccc(N3CCC3)cc1Oc1cc(N3CCC3)ccc12 [Example 24, 3′,6′-di(azetidin-1-yl)-6-(4-(2-((6-chlorohexyl)oxy)ethoxy)butyl)-2-diazospiro[indene-1,9′-xanthen]-3(2H)-one]
[1]; [3]
  Fold reduction in nonspecific labeling: 1-5

## CN(C)C(=O)[C@H]1CCN(c2ccc3c(c2)Oc2cc(N4CC[C@H](C(=O)N(C)C)C4)ccc2C32C(=[N+]=[N-])C(=O)c3ccc(C(=O)NCCOCCOCCCCCCCl)cc32)C1 [Example 16, (3S,3′S)-1,1′-(6-((2-(2-((6-chlorohexyl)oxy)ethoxy)ethyl)carbamoyl)-2-diazo-3-oxo-2,3-dihydrospiro[indene-1,9′-xanthene]-3′,6′-diyl)bis(N,N-dimethylpyrrolidine-3-carboxamide)]
[1]; Table 4a
  Fold reduction in nonspecific labeling: 5-10
[1]; [3]
  Fold reduction in nonspecific labeling: 5-10

## [N-]=[N+]=C1C(=O)c2ccc(COCCOCCOCCCCCCCl)cc2C12c1ccc(N3CCC3)cc1Oc1cc(N3CCC3)ccc12 [Example 27, 3′,6′-di(azetidin-1-yl)-6-((2-(2-((6-chlorohexyl)oxy)ethoxy)ethoxy)methyl)-2-diazospiro[indene-1,9′-xanthen]-3(2H)-one]
[1]; [3]
  Fold reduction in nonspecific labeling: <1

## [N-]=[N+]=C1C(=O)c2ccc(C(=O)NCCOCCOCCCCCCCl)cc2C12c1ccc(N3CC(O)C3)cc1Oc1cc(N3CC(O)C3)ccc12 [Example 7, N-(2-(2-((6-chlorohexyl)oxy)ethoxy)ethyl)-2-diazo-3′,6′-bis(3-hydroxyazetidin-1-yl)-3-oxo-2,3-dihydrospiro[indene-1,9′-xanthene]-6-carboxamide]
[1]; Table 4a
  Fold reduction in nonspecific labeling: >10
[1]; [3]
  Fold reduction in nonspecific labeling: >10

## [N-]=[N+]=C1C(=O)c2ccc(C(=O)NCCOCCOCCCCCCCl)cc2C12c1ccc(N3CC(C(=O)N4CCOCC4)C3)cc1Oc1cc(N3CC(C(=O)N4CCOCC4)C3)ccc12 [Example 9, N-(2-(2-((6-chlorohexyl)oxy)ethoxy)ethyl)-2-diazo-3′,6′-bis(3-(morpholine-4-carbonyl)azetidin-1-yl)-3-oxo-2,3-dihydrospiro[indene-1,9′-xanthene]-6-carboxamide]
[1]; Table 4a
  Fold reduction in nonspecific labeling: >10
[1]; [3]
  Fold reduction in nonspecific labeling: >10

## [N-]=[N+]=C1C(=O)c2ccc(C(=O)NCCOCCOCCCCCCCl)cc2C12c1ccc(N3C4COCC3C4)cc1Oc1cc(N3C4COCC3C4)ccc12 (stereo not shown) [Example 17, 3′,6′-di(3-oxa-6-azabicyclo[3.1.1]heptan-6-yl)-N-(2-(2-((6-chlorohexyl)oxy)ethoxy)ethyl)-2-diazo-3-oxo-2,3-dihydrospiro[indene-1,9′-xanthene]-6-carboxamide]
[1]; Table 4a
  Fold reduction in nonspecific labeling: 1-5
[1]; [3]
  Fold reduction in nonspecific labeling: 1-5

## 1,1′-(6-((2-(2-((6-chlorohexyl)oxy)ethoxy)ethyl)carbamoyl)-2-diazo-3-oxo-2,3-dihydrospiro[indene-1,9′-xanthene]-3′,6′-diyl)bis(azetidine-3-carboxamide [Example 20]
[1]; [3]
  Fold reduction in nonspecific labeling: >10
